Reference: patent US20140121231A1, “PYRANOPYRIDONE INHIBITORS OF TANKYRASE” (Hoffmann-La Roche, Inc., priority 2012, published 2014)
Counter-ions that a name gives are not always drawn.

Tests used:
[1] = target: T1, Tankyrase 1 (TNKS1) (Homo sapiens, UniProt O95271); assay: μHTS-TNKS-IWR2 TR-FRET Binding Assay (Example 71), TNKS1
T1 construct: His6-TNKS1, MW=28.2 KDa (construct: 1088-1327, 1266M)
Protocol: (§1) μHTS-TNKS-IWR2 TR-FRET Binding Assay (10 μL/well in BD1536-well plate, a single point)
(§2) Assay buffer 1a (AB1a) for TNKS dilution: 50 mM Tris, pH 7.4, 100 mM sodium chloride solution, 1 mM magnesium chloride solution, 1 mM DL-dithiothreitol solution, 0.2 mg/mL bovine serum albumin solution, 0.025% NP-40. Assay buffer 1b (AB 1b) for Biotin-IWR2 dilution: 50 mM Tris, pH 7.4, 100 mM sodium chloride solution, 1 mM magnesium chloride solution, 1 mM DL-dithiothreitol solution, 0.2 mg/mL bovine serum albumin solution, 0.05% NP-40 Assay buffer 1c (AB 1c) for compound dilution: 50 mM Tris, pH 7.4, 100 mM sodium chloride solution, 1 mM magnesium chloride solution, 1 mM DL-dithiothreitol solution, 0.2 mg/mL bovine serum albumin solution Assay buffer 2 (AB2) for Eu/APC: 50 mM Tris, pH 7.4, 100 mM sodium chloride solution, 1 mM magnesium chloride solution, 0.2 mg/mL bovine serum albumin solution
(§3) Transfer 3 μL/well of above solution (solution 1,2,3) to an empty assay plate (BD1536-well plate) as follows: TOTAL and cpd wells: Solution 1 (Biotin-IWR2): BLANK wells: Solution 2 (No Biotin-IWR2): POSITIVE CONTROL wells: Solution 3 (Biotin-IWR2XAV939) Transfer 3 μL/well of the above diluted compound solutions or compound dilution buffer to the above assay plate. Add 2 μL/well of 300 nM TNKS stock solution (4) to every well in the above assay plate. Centrifuge the assay plate at 2100 rpm for 2 min. Incubate the assay plate at 26° C. for 30 minutes. Add 2 μL/well 3.5 nMEu/50 nM APC solution (5) to every well in the above assay plate. Centrifuge the assay plate at 2100 rpm for 2 min. Incubate the assay plate at 26° C. for 60 min.

[2] = target: T2, PARP1 (His6-PARP1, full length) (Homo sapiens, UniProt P09874); assay: TR-FRET Binding Assay (Example 71), PARP1; conditions: TR-FRET assay of Example 71 with His6-PARP1
T2 construct: His6-PARP1 (full length) can be substituted for His6-TNKS 1
T2 sequence (P09874 whole entry, species assumed): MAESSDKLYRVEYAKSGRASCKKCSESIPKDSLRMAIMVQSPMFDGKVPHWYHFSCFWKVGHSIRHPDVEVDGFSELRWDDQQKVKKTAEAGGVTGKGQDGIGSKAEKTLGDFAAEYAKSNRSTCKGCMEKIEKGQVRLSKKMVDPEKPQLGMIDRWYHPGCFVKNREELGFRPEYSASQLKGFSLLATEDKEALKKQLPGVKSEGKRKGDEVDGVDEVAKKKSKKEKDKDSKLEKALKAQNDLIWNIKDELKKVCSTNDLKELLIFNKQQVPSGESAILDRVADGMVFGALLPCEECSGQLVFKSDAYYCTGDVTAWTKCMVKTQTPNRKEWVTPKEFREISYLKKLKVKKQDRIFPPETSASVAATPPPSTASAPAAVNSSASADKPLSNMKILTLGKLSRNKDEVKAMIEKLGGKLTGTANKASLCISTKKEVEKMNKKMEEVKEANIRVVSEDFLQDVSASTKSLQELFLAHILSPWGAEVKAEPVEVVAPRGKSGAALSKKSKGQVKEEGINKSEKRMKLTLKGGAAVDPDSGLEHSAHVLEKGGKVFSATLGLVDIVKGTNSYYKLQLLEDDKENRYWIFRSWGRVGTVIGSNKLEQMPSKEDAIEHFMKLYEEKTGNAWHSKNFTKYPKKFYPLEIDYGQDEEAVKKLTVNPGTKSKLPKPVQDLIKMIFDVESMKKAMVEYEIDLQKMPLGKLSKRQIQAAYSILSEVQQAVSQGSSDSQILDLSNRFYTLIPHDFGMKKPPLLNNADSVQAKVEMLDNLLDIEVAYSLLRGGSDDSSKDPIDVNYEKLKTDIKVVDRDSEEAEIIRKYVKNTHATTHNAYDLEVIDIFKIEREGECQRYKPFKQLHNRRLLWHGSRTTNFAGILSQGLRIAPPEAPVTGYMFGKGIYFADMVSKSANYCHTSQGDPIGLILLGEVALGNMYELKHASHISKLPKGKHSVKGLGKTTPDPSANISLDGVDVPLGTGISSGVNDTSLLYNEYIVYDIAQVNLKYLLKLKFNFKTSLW
Protocol: as §1
Tankyrase 1 (TNKS1): 184.3 μM=5.2 mg/mL His6-TNKS1, MW=28.2 KDa (construct: 1088-1327, 1266M) in 20 mM Tris pH 8, 150 mM NaCl, 10% glycerol, and 0.5 mM TCEP. Alternatively, His6-tankyrase 2 (construct: 934-1166) (His6-TNKS2) or His6-PARP1 (full length) can be substituted for His6-TNKS 1.
as §2
Prepare Biotinylated IWR2 stock solution (3.33× stock) for TOTL and compound wells: 200 nM Biotin-IWR2 in 5% DMSO/AB1b buffer
Prepare BLANK well stock solution: 5% DMSO/AB1b buffer Prepare POSITIVE CONTROL well stock solution (3.33× stock): 200 nM XAV939 in 200 nM Biotin-IWR2/5% DMSO/AB1b buffer Prepare TNKS1 stock solution (5× stock): 300 nM TNKS in AB1a buffer. (Alternatively, use TNKS2 or PARP1 stock solutions.) Prepare Eu/APC stock solution (5× stock): 3.5 nM Eu-SA/50 nM APC-His6Ab in AB2 buffer.
Add 25 μL/well 1.5% DMSO/AB1c buffer in each compound well to the compound concentration at 74 μM in 8.8% DMSO/AB1c buffer or in the 2 μL DMSO CONTROL wells (BLANK, TOTAL and POSITIVE wells) in the compound plate. Transfer 3 μL/well of above solution (solution 1,2,3) to an empty assay plate (BD1536-well plate) as follows: TOTAL and cpd wells: Solution 1 (Biotin-IWR2): BLANK wells: Solution 2 (No Biotin-IWR2): POSITIVE CONTROL wells: Solution 3 (Biotin-IWR2XAV939) Transfer 3 μL/well of the above diluted compound solutions or compound dilution buffer to the above assay plate. Add 2 μL/well of 300 nM TNKS stock solution (4) to every well in the above assay plate. Centrifuge the assay plate at 2100 rpm for 2 min. Incubate the assay plate at 26° C. for 30 minutes. Add 2 μL/well 3.5 nMEu/50 nM APC solution (5) to every well in the above assay plate. Centrifuge the assay plate at 2100 rpm for 2 min. Incubate the assay plate at 26° C. for 60 min. Read the assay plate immediately at excitation wavelength of 330 nm and emission wavelength of […] in time resolved fluorescence mode.
. Representative compound data for the PARP1 assay is in TABLE 2 (below) Values are in μM.

[3] = target: T3, tankyrase 2 (His6-TNKS2) (Homo sapiens, UniProt Q9H2K2); assay: μHTS-TNKS-IWR2 TR-FRET Binding Assay (Example 71), TNKS2; conditions: footnote 1: Tankyrase 1 and 2 inhibition assay in Example 71 (TR-FRET)
T3 construct: His6-tankyrase 2 (construct: 934-1166) (His6-TNKS2)
T3 sequence (Q9H2K2 934-1166): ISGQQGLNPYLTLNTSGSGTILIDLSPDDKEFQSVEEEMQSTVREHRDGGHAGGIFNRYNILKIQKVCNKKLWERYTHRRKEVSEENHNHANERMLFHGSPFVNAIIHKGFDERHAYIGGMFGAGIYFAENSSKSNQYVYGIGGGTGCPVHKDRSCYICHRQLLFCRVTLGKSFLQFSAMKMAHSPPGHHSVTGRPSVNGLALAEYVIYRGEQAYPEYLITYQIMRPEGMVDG
Protocol: as §1
Biotin-4-((1S,2R,6S,7R)-3,5-Dioxo-4-aza-tricyclo[5.2.1.0*2,6*]dec-8-en-4-yl)-N-(4-methyl-quinolin-8-yl)-benzamide (Biotin-IWR2): 10 mM Biotin-IWR2 stock in DMSO, stored at −20° C. Positive control: 10 mM 2-(4-Trifluoromethyl-phenyl)-3,5,7,8-tetrahydro-thiopyrano[4,3-d]pyrimidin-4-one (XAV939) in DMSO, stored at −20° C.
as §2, §3

T1 sequence (O95271 1088-1327): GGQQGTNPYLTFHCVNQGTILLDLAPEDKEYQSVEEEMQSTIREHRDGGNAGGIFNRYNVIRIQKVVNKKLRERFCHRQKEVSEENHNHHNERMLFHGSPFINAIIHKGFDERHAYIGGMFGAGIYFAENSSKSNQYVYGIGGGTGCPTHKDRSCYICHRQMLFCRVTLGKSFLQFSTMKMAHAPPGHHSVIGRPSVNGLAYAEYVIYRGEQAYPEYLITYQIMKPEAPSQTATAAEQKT

SMILES	IC50 [1] [nM]	IC50 [2] [nM]	IC50 [3] [nM]
CC(C)C1Cc2[nH]c(=O)c3cccnc3c2CO1 (racemic) [Compound I-4, rac-2-Isopropyl-1,2,4,10-tetrahydro-3-oxa-5,10-diaza-phenanthren-9-one]	–	345	–
O=c1[nH]c2c(c3ccccc13)COC(C1CCCC1)C2 (racemic) [Compound I-7, rac-2-Cyclopentyl-1,2,4,10-tetrahydro-3-oxa-10-aza-phenanthren-9-one]	34.2	119	43
CC(C)C1Cc2[nH]c(=O)c3cnccc3c2CO1 (racemic) [Compound I-15, rac-7-Isopropyl-5,7,8,9-tetrahydro-6-oxa-2,9-diaza-phenanthren-10-one]	50.8	> 50000	68.8
CC(C)C1Cc2[nH]c(=O)c3ccc([N+](=O)[O-])cc3c2CO1 (racemic) [Compound I-16, rac-2-Isopropyl-6-nitro-1,2,4,10-tetrahydro-3-oxa-10-aza-phenanthren-9-one]	404	35.6	2700
COC(=O)c1ccc2c(=O)[nH]c3c(c2c1)COC(C(C)C)C3 (racemic) [Compound I-19, rac-2-Isopropyl-9-oxo-1,4,9,10-tetrahydro-2H-3-oxa-10-aza-phenanthrene-6-carboxylic acid methyl ester]	84.1	73.5	386
CC(C)(C)OC(=O)N1CCC(C2Cc3[nH]c(=O)c4ccccc4c3CO2)CC1 (racemic) [Compound I-21, rac-4-(9-Oxo-1,4,9,10-tetrahydro-2H-3-oxa-10-aza-phenanthren-2-yl)-piperidine-1-carboxylic acid tert-butyl ester]	33.5	15.9	46.7
CC(C)(CO)C1Cc2[nH]c(=O)c3ccccc3c2CO1 (racemic) [Compound I-30, rac-2-(2-Hydroxy-1,1-dimethyl-ethyl)-1,2,4,10-tetrahydro-3-oxa-10-aza-phenanthren-9-one]	–	53.3	–
O=C(C1COC1)N1CCC(C2Cc3[nH]c(=O)c4ccccc4c3CO2)CC1 (racemic) [Compound I-52, rac-2-[1-(Oxetane-3-carbonyl)-piperidin-4-yl]-1,2,4,10-tetrahydro-3-oxa-10-aza-phenanthren-9-one]	–	32.8	–
Cc1cccc2c(=O)[nH]c3c(c12)CO[C@H](C(C)(C)CO)C3 (single isomer, unassigned) [Compound I-66]	–	89.7	–
Cc1cccc2c(=O)[nH]c3c(c12)CO[C@@H](C(C)(C)CO)C3 (single isomer, unassigned) [Compound I-67]	–	70	–

The next lines start with the values.

IC50 [1] [nM]	IC50 [2] [nM]	IC50 [3] [nM]	SMILES
33.6	280	34.4	O=c1[nH]c2c(c3ccccc13)COC(C1CCOC1)C2 (mixture of isomers) [Compound I-59, 2-(Tetrahydro-furan-3-yl)-1,2,4,10-tetrahydro-3-oxa-10-aza-phenanthren-9-one]
–	34.3	–	CC(C)C1Cc2[nH]c(=O)c3ccccc3c2CO1 (racemic) [Compound I-2, rac-2-Isopropyl-1,2,4,10-tetrahydro-3-oxa-10-aza-phenanthren-9-one]
70.3	82.9	92.1	CC(C)C1Cc2[nH]c(=O)c3sccc3c2CO1 (racemic) [Compound I-5, rac-7-Isopropyl-5,6,7,9-tetrahydro-8-oxa-3-thia-5-aza-cyclopenta[a]naphthalen-4-one]
44	58.2	73.4	CC(C)C1Cc2[nH]c(=O)c3cc(Cl)ccc3c2CO1 (racemic) [Compound I-6, rac-7-Chloro-2-isopropyl-1,2,4,10-tetrahydro-3-oxa-10-aza-phenanthren-9-one]
–	176	–	CC(C)(C)C1Cc2[nH]c(=O)c3ccccc3c2CO1 (racemic) [Compound I-8, rac-2-tert-Butyl-1,2,4,10-tetrahydro-3-oxa-10-aza-phenanthren-9-one]
93.7	80.1	231	CC(C)C1Cc2[nH]c(=O)c3ccoc3c2CO1 (racemic) [Compound I-10, rac-7-Isopropyl-5,6,7,9-tetrahydro-1,8-dioxa-5-aza-cyclopenta[a]naphthalen-4-one]
40.8	2670	52.1	O=c1[nH]c2c(c3ccccc13)COC(CCc1ccccc1)C2 (racemic) [Compound I-13, rac-2-Phenethyl-1,2,4,10-tetrahydro-3-oxa-10-aza-phenanthren-9-one]
97.2	680	204	CC(C)C1Cc2[nH]c(=O)c3ccncc3c2CO1 (racemic) [Compound I-14, rac-7-Isopropyl-5,7,8,9-tetrahydro-6-oxa-3,9-diaza-phenanthren-10-one]
–	107	–	Cc1cccc2c(=O)[nH]c3c(c12)COC(C(C)C)C3 (racemic) [Compound I-17, rac-2-Isopropyl-5-methyl-1,2,4,10-tetrahydro-3-oxa-10-aza-phenanthren-9-one]
25.5	61.1	30.5	CC1(C2Cc3[nH]c(=O)c4ccccc4c3CO2)CCCCC1 (racemic) [Compound I-20, rac-2-(1-Methyl-cyclohexyl)-1,2,4,10-tetrahydro-3-oxa-10-aza-phenanthren-9-one]
88.8	> 50000	109	O=c1[nH]c2c(c3ccccc13)COC(C1CCNCC1)C2 (racemic) [Compound I-22, rac-2-Piperidin-4-yl-1,2,4,10-tetrahydro-3-oxa-10-aza-phenanthren-9-one, trifluoroacetate]
88.6	2030	243	CC(C)C1Cc2[nH]c(=O)c3ccc(C(N)=O)cc3c2CO1 (racemic) [Compound I-23, rac-2-Isopropyl-9-oxo-1,4,9,10-tetrahydro-2H-3-oxa-10-aza-phenanthrene-6-carboxylic acid amide]
473	63.4	1300	CC(C)C1Cc2[nH]c(=O)c3ccc(N)cc3c2CO1 (racemic) [Compound I-24, rac-6-Amino-2-isopropyl-1,2,4,10-tetrahydro-3-oxa-10-aza-phenanthren-9-one]
–	36.5	–	CS(=O)(=O)N1CCC(C2Cc3[nH]c(=O)c4ccccc4c3CO2)C1 (stereo not drawn) [Compound I-39, 2-(1-Methanesulfonyl-pyrrolidin-3-yl)-1,2,4,10-tetrahydro-3-oxa-10-aza-phenanthren-9-one]
